Assay results: patent publication US7015249B1, “Methods and compositions for treating diabetes” (Purdue Research Foundation, priority 1997, dated 2006)

How the values were obtained:
[1] = target: T1, ligand binding domain of mouse PPARα (Mus musculus, UniProt P23204); assay: GAL4-PPARα chimera / (UAS)5-tk-CAT reporter transfection assay in COS-1 cells; assay type: cell-based; conditions: 100 μM in DMSO
T1 construct: expressed in transfected cells; host or cells: COS-1
T1 sequence (P23204 239-466 limits assumed): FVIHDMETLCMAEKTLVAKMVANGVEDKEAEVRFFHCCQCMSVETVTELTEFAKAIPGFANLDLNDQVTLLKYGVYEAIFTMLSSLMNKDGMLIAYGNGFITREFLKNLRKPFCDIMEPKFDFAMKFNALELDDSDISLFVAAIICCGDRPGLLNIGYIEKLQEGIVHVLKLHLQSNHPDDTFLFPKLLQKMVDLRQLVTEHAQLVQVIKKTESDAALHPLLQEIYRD
Protocol: COS-1 cells (American Type Culture Collection) were maintained in α-minimal essential media (Sigma) supplemented with 8% fetal calf serum (Gibco BRL), 0.2 mg/ml streptomycin and 200 U/ml penicillin. The pSG5-GAL4-PPAR chimera expression constructs, containing the ligand binding domain of mouse PPARα, β or γ, as well as the (UAS)5-tk-CAT reporter construct were kindly provided by Steven A. Kliewer (Glaxo Research Institute). At 75–90% confluence, COS-1 cells were co-transfected with GAL4-PPAR, (UAS)5-tk-CAT, and pSV-βGal (Promega) as described in Lehmann, J. M. et al., J. Biol. Chem. 270, 12953–12956 (1995). Twenty-four hours after transfection, the cells were treated with the indicated amounts of CLA, or a single 100 μM dose of 4-chloro-6-(2,3-xylindino)-2-pyrimidinylthio)-acetic acid (Wy 14,643; a hypolipidemic drug known as a peroxisome proliferator). After 6 hours of treatment, the cells were harvested and chloramphenicol acetyltransferase levels were assessed by ELISA (Gibco BRL) according to the manufacturer's instructions. Data is expressed relative to β-galactosidase activity. CLA used in this experiment was obtained from a commercially available mixture from NuChek Prep, Elysian Minn. […]

[2] = target: T2, ligand binding domain of mouse PPARβ (Mus musculus, UniProt P35396); assay: GAL4-PPARβ chimera / (UAS)5-tk-CAT reporter transfection assay in COS-1 cells; assay type: cell-based; conditions: 100 μM in DMSO
T2 construct: expressed in transfected cells; host or cells: COS-1
T2 sequence (P35396 210-438 limits assumed): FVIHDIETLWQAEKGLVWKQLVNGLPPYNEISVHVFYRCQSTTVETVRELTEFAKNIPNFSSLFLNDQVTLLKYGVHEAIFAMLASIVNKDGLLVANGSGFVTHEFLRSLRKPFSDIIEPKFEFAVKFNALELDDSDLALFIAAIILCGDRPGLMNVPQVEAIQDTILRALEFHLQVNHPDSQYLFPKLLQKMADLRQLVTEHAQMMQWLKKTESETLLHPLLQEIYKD
Protocol: COS-1 cells (American Type Culture Collection) were maintained in α-minimal essential media (Sigma) supplemented with 8% fetal calf serum (Gibco BRL), 0.2 mg/ml streptomycin and 200 U/ml penicillin. The pSG5-GAL4-PPAR chimera expression constructs, containing the ligand binding domain of mouse PPARα, β or γ, as well as the (UAS)5-tk-CAT reporter construct were kindly provided by Steven A. Kliewer (Glaxo Research Institute). At 75–90% confluence, COS-1 cells were co-transfected with GAL4-PPAR, (UAS)5-tk-CAT, and pSV-βGal (Promega) as described in Lehmann, J. M. et al., J. Biol. Chem. 270, 12953–12956 (1995). Twenty-four hours after transfection, the cells were treated with the indicated amounts of CLA, or a single 100 μM dose of 4-chloro-6-(2,3-xylindino)-2-pyrimidinylthio)-acetic acid (Wy 14,643; a hypolipidemic drug known as a peroxisome proliferator). After 6 hours of treatment, the cells were harvested and chloramphenicol acetyltransferase levels were assessed by ELISA (Gibco BRL) according to the manufacturer's instructions. Data is expressed relative to β-galactosidase activity. CLA used in this experiment was obtained from a commercially available mixture from NuChek Prep, Elysian Minn. The mixture contained about 41.2% by weight of a composition including cis,trans-9,11-octadecadienoic acid and trans,cis-9,11-octadecadienoic acid, about 44% by weight trans,cis-10,12-octadecadienoic acid, about 9.4% by weight cis,cis-10,12-octadecadienoic acid, about 1.3% by weight of a composition including trans,trans-9,11-octadecadienoic acid and trans,trans-10,12-octadecadienoic acid, about 1.1% by weight cis,cis-9,11-octadecadienoic acid, about 0.7% by weight linoleic acid and about 2.2% of other lipids as mentioned above.
In this example, certain PPAR subtypes are shown to be activated by CLA isomers. However, a 100 μM concentration of selected isomers of CLA were also utilized in the transfection assay to determine whether specific isomers of CLA could activate any of the PPAR subtypes.

SMILES | activation of PPARα, compared with CLA mixture (FIG. 4) [1] | activation of PPARβ, compared with CLA mixture (FIG. 4) [2]
CCCCCC/C=C/C=C\CCCCCCCC(=O)O [9Z11E, cis,trans-9,11-octadecadienoic acid] | more than the CLA mixture | more than the CLA mixture
CCCCCC/C=C\C=C/CCCCCCCC(=O)O [9Z11Z, cis,cis-9,11-octadecadienoic acid] | more than the CLA mixture | more than the CLA mixture
CCCCCC/C=C/C=C/CCCCCCCC(=O)O [9E11E, trans,trans-9,11-octadecadienoic acid] |  | more than CLA mixture alone
